Target: HIV-1 reverse transcriptase (RT35A, wild type) (Human immunodeficiency virus type 1 group M subtype B, UniProt P03366)
Test: JDAM dual activity monitor RT activity assay
Type: biochemical
Conditions: for ligand efficiency: LE = -RTln(IC50)/NHA

| Structure (SMILES) | ligand efficiency [kcal/mol●NHA] | inhibition (in words) (at 1 mM, JDAM assay) |
| --- | --- | --- |
| CN(CC(=O)N1CCCc2ccccc21)Cc1nc(=O)c2ccccc2[nH]1 [compound 8, 2-(((2-(3,4-dihydroquinolin-1(2H)-yl)-2-oxoethyl)(methyl)amino)methyl)quinazolin-4(1H)-one] | 0.19 |  |
| CCOC(=O)c1cnn2ccccc12 [compound 1, ethyl pyrazolo[1,5-a]pyridine-3-carboxylate] | 0.34 |  |
| Oc1ccc(OC(F)(F)F)cc1 [compound 3, 4-(trifluoromethoxy)phenol] | 0.37 |  |
| NCc1ccc(OC(F)(F)F)cc1 [compound 2, 4-(trifluoromethoxy)benzylamine] |  | no detectable inhibition |

From article PMC3906421 (Journal of medicinal chemistry, 2013)
